In brackets after ≈: the same amount, converted by molar mass. Entries after “also recorded” stand apart in the source; their conditions may differ.
How the values were obtained:
[1] = test system: Xenopus tadpole, stage 59-60; test: Tadpole assay; assay type: in vivo, Xenopus laevis; conditions: 10 μg/ml; for pharmacological response in tadpole (words): stage 59-60
Excerpt: For example, substances that destroy all of the animal's epithelium, both adult and embryonic, could be regarded as toxic.
The volume of liquid is sufficient for the animal to swim freely and drink from the solution. […] If the volume of liquid is not sufficient to permit oral intake, the effects that are observed would result from absorption through the surface epithelium.
In another embodiment of this assay, a solution of a compound in water can be injected directly into the abdomen of the animal using standard techniques.
After an amount of time, typically about 60 minutes, the occlusion of blood flow through capillaries in the tadpole's tail are observed under an inverted microscope at a magnification of roughly 100×.
In the assay, each of the steroids was dissolved in 100 ml of distilled water at a concentration of 10 μg/ml. Stage 59-60 Xenopus tadpoles were introduced and evaluated by light microscopy and gross observation 1 hour later.

[2] = test system: Human ovarian carcinoma SKOV3; test: Growth inhibition in vitro (Table 7); assay type: cell-based
Procedure: As set forth in Table 7 below, all malignant tumors evaluated in tissue culture, endothelial cells and vascular smooth muscle cells were sensitive to inhibition. Thus, compound 1436 has application in the control of growth factor dependent proliferation of many types of tissue.
Using the assay described above, the anticancer effects of compound 1437 against several cancer lines was assessed.

[3] = Effect on fasting blood glucose in mice; assay type: in vivo, mouse; conditions: i.v.
Procedure: To study the effect of steroid administrator or the NHE responsible for secretion of insulin, several of the aminosterols from shark liver were administered to fasting mice. Male CD-1 mice were assigned to one of four treatment groups. Whole blood glucose was tested using glucometer (Lifescan Glucometer II and One Touch test strips). Statistical analysis was via one-way analysis of variance (ANOVA) followed by subsequent Bonferonni's t-test.

C. albicans = test: Antibiotic activity, MIC; assay type: cell-based; conditions: Candida albicans
Excerpt: (§1) Thus, it is possible to achieve an antimicrobial steroid with or without squalamine-like pharmacological activity.

E. coli = test: Antibiotic activity, MIC; assay type: cell-based; conditions: Escherichia coli
Excerpt: as §1

P. aerug = test: Antibiotic activity, MIC; assay type: cell-based
Excerpt: as §1

S. aureus = test: Antibiotic activity, MIC; assay type: cell-based; conditions: Staphylococcus aureus
Excerpt: as §1

MTT assay (Table II) = assay type: cell-based; conditions: read-out: Minimum Effective Concentration, MTT assay
Excerpt: (§2) As set forth in Table II, which follows Table I, the activities of natural and synthetic aminosterols in the different assays vary. In light of the foregoing, it is now possible to screen for steroids with or without squalamine-like pharmacological activity.

vitelline capillaries = test: Chick embryo vitelline capillary regression assay; assay type: in vivo
Procedure: Using the chick embryo vitelline capillaries assay, compounds were tested for their ability to induce capillary regression. Each compound was applied in 0.1 ml of 15% Ficol 400 and PBS onto the embryo, and vascular regression was assessed after 60 minutes.
The 3-day chick embryo consists of an embryonic disc from which numerous vessels emerge and return, forming a "FIG. 8"-shaped structure--the embryo in the center with vascular loops extending outward over both poles. […] Following a lag period of around 15 minutes, the constriction of continuity between capillary and secondary vessels, generally on the "venous" side, was observed. Continued pulsatile blood flow progressed, resulting in a "swelling" of the blind tube, followed by a pinching off of the remaining connection and formation of an enclosed vascular sac resembling a "blood island." This process progressed until only the largest vessels remained intact.

[4] = test system: human microvascular cells; test: Inhibition of endothelial cell cord formation in vitro; assay type: cell-based; conditions: Homo sapiens, Endothelial cell; Table II; read-out: Minimum Effective Concentration, Cord Formation
Excerpt: Endothelial cells have the capacity in vitro to form tubular aggregates resembling capillaries in various early stages of formation. This conversion occurs under relatively specific conditions, in which essential growth factors along with an effective substratum are provided. It has been shown that both the interaction of growth factors with the endothelial cell and its attachment to a substratum activate the NHE. The activation of this exchanger is believed to be required for subsequent morphologic transformation of the endothelial cell into a multicellular tubular structure.
To assess the effect of compounds on the cord-like structures formed by human microvascular cells when plated in the presence of VEGF (Vascular Endothelial Growth Factor) and basic fibroblast growth factor on a collagen matrix, a standard cord formation assay was used.

Lic = test: MTT Lic (Table II); assay type: cell-based; conditions: read-out: Minimum Effective Concentration, MTT Lic
Excerpt: as §2

COC(=O)CC[C@@H](C)[C@H]1CC[C@H]2[C@@H]3[C@H](O)C[C@@H]4C[C@H](NCCN)CC[C@]4(C)[C@H]3CC[C@]12C [Compound 410]
pharmacological response in tadpole (words) [1]: functionally similar to compound 1437

CC(C)C(CO)(CC[C@@H](C)[C@H]1CC[C@H]2[C@@H]3[C@H](O)C[C@H]4C[C@@H](NCCCNCCCCN)CC[C@]4(C)[C@H]3CC[C@]12C)OS(=O)(=O)O (single isomer, unassigned) [Compound 1437]
tissues or functions not affected in tadpole [1]: Animal was otherwise active, with little tissue breakdown noted
pharmacological response in tadpole (words) [1]: Epithelium covering the embryonic portions of the animal, such as the tail and antennae, began to slough off in sheets; also recorded: dramatic effect on the embryonic epithelium covering the tadpole tale
anticancer activity [2]: exhibit anticancer activity
blood glucose effect [3]: caused hyperglycemia in mice

CC(C)CCC[C@@H](C)[C@H]1CC[C@H]2[C@@H]3[C@H](O)C[C@H]4C[C@H](NCCCNCCCCN)CC[C@]4(C)[C@H]3CC[C@]12C [Compound 370]
pharmacological response in tadpole (words) [1]: pharmacologic activity similar to that seen for FX 3

COC(=O)CC[C@@H](C)[C@H]1CC[C@H]2[C@@H]3C[C@@H](O)[C@H]4C[C@@H](NCCN)CC[C@]4(C)[C@H]3CC[C@]12C [Compound 432]
pharmacological response in tadpole (words) [1]: functionally similar to compound 1437

C[C@H](CCC(=O)O)[C@H]1CC[C@H]2[C@@H]3[C@H](O)C[C@@H]4C[C@H](NCCN)CC[C@]4(C)[C@H]3CC[C@]12C [Compound 414]
pharmacological response in tadpole (words) [1]: pharmacologic activity similar to Fraction 1

CC(C)CCC[C@@H](C)[C@H]1CC[C@H]2[C@@H]3[C@H](O)C[C@H]4C[C@@H](NCCCNCCCCN)CC[C@]4(C)[C@H]3CC[C@]12C [Compound 371]
pharmacological response in tadpole (words) [1]: effects like those produced by compound 1436

COC(=O)CC[C@@H](C)[C@H]1CC[C@H]2[C@@H]3C[C@@H](O)[C@H]4C[C@@H](NCCCNCCCCNCCCN)CC[C@]4(C)[C@H]3CC[C@]12C [Compound 466]
pharmacological response in tadpole (words) [1]: pharmacologic activity similar to that seen for FX 3

CC(O)[C@H]1CC[C@H]2[C@@H]3CC[C@H]4C[C@H](NCCCNCCCCN)CC[C@]4(C)[C@H]3CC[C@]12C (some centres unmarked)
MIC (C. albicans): 128 µg/mL (≈ 286 µM)
MIC (E. coli): 64 µg/mL (≈ 143 µM)
MIC (P. aerug): 128 µg/mL (≈ 286 µM)
MIC (S. aureus): 16 µg/mL (≈ 35.7 µM)

CC(C)CCC[C@@H](C)[C@H]1CC[C@H]2[C@@H]3[C@H](O)C[C@H]4C[C@H](NCCCNCCCCN)CC[C@]4(C)[C@H]3CC[C@]12C [drawing 94]
minimal effective concentration (MTT assay (Table II)): 4 µg/mL

C[C@H](CCC(=O)O)[C@H]1CC[C@H]2[C@@H]3[C@H](O)C[C@@H]4C[C@H](NCCCNCCCCNCCCN)CC[C@]4(C)[C@H]3CC[C@]12C [Compound 412]
pharmacological response in tadpole (words) [1]: pharmacologic activity similar to that seen for FX 3

COC(=O)CC[C@@H](C)[C@H]1CC[C@H]2[C@@H]3CC[C@H]4C[C@H](NCCCNCCCCNCCCN)CC[C@]4(C)[C@H]3CC[C@]12C [Compound 458]
pharmacological response in tadpole (words) [1]: pharmacologic activity similar to that seen for FX 3

CC(C)CCC[C@@H](C)[C@H]1CC[C@H]2[C@@H]3CC[C@H]4C[C@@H](NCCCNCCCCNCCCN)CC[C@]4(C)[C@H]3CC[C@]12C [drawing 86]
minimal effective concentration (MTT assay (Table II)): 3 µg/mL

COC(=O)CC[C@@H](C)[C@H]1CC[C@H]2[C@@H]3CC[C@H]4C[C@@H](NCCCNCCCCNCCCN)CC[C@]4(C)[C@H]3CC[C@]12C [Compound 459]
pharmacological response in tadpole (words) [1]: pharmacologic activity similar to that seen for FX 3

COC(=O)CC[C@@H](C)[C@H]1CC[C@H]2[C@@H]3C[C@@H](O)[C@H]4C[C@H](NCCCNCCCCNCCCN)CC[C@]4(C)[C@H]3CC[C@]12C [Compound 465]
pharmacological response in tadpole (words) [1]: pharmacologic activity similar to that seen for FX 3

COC(=O)CC[C@@H](C)[C@H]1CC[C@H]2[C@@H]3CC[C@@H]4C[C@H](NCCN)CC[C@]4(C)[C@H]3C[C@H](O)[C@]12C [Compound 416]
pharmacological response in tadpole (words) [1]: functionally similar to compound 1437

COC(=O)CC[C@@H](C)[C@H]1CC[C@H]2[C@@H]3C[C@@H](O)[C@H]4C[C@H](NCCN)CC[C@]4(C)[C@H]3CC[C@]12C [Compound 431]
pharmacological response in tadpole (words) [1]: functionally similar to compound 1437

CC(COS(=O)(=O)O)C(=O)CC[C@@H](C)[C@H]1CC[C@H]2[C@@H]3[C@H](O)C[C@H]4C[C@@H](NCCCNCCCCN)CC[C@]4(C)[C@H]3CC[C@]12C (single isomer, unassigned) [Compound 1360]
effect on circulating embryonic blood (vitelline capillaries; within 20 minutes): the blood circulating through the embryonic vessels exhibited a brighter red color
pharmacological response in tadpole (words) [1]: Swelling and lysis of certain erythrocytes occurred, resulting in accumulation of nuclei within certain small vessels of the tail. Subsequent tissue breakdown occurred in areas of tail surrounding these nuclear plugs
pharmacological response in tadpole (words) ([1]; listed as compound 1360): extensive vasocclusion occurred within 60 minutes throughout the tail

CC(CC[C@@H](OS(=O)(=O)O)C(C)C)[C@H]1CCC2C3C(CC[C@@]21C)[C@@]1(C)CC[C@H](NCCCNCCCCN)C[C@@H]1C[C@H]3O (some centres unmarked)
minimal effective concentration [4]: 0.01 to 0.1 µg/mL
minimal effective concentration (Lic): 13.2 µg/mL

CC(O)[C@H]1CC[C@H]2[C@@H]3CC[C@H]4C[C@@H](NCCCNCCCCN)CC[C@]4(C)[C@H]3CC[C@]12C (some centres unmarked)
MIC (C. albicans): 64 µg/mL (≈ 143 µM)
MIC (E. coli): 32 to 64 µg/mL (≈ 71.5 to 143 µM)
MIC (P. aerug): 256 µg/mL (≈ 572 µM)
MIC (S. aureus): 4 µg/mL (≈ 8.93 µM)

COC(=O)CCC(C)[C@H]1CCC2C3C(CC[C@@]21C)[C@@]1(C)CC[C@@H](NCCN)C[C@H]1C[C@H]3O (some centres unmarked)
minimal effective concentration (MTT assay (Table II)): 2.5 µg/mL

C[C@H](CCC(=O)O)[C@H]1CC[C@H]2[C@@H]3[C@H](O)C[C@@H]4C[C@@H](NCCCNCCCCNCCCN)CC[C@]4(C)[C@H]3CC[C@]12C [Compound 413]
pharmacological response in tadpole (words) [1]: effects like those produced by compound 1436

C[C@H](CCC(=O)O)[C@H]1CC[C@H]2[C@@H]3C[C@@H](O)[C@H]4C[C@@H](NCCN)CC[C@]4(C)[C@H]3CC[C@]12C [Compound 433]
pharmacological response in tadpole (words) [1]: functionally similar to compound 1437

C[C@H](CCC(=O)O)[C@H]1CC[C@H]2[C@@H]3[C@H](O)C[C@@H]4C[C@@H](NCCN)CC[C@]4(C)[C@H]3CC[C@]12C [Compound 415]
activity on vitelline capillaries (vitelline capillaries): especially active

COC(=O)CC[C@@H](C)[C@H]1CC[C@H]2[C@@H]3[C@H](O)C[C@@H]4C[C@@H](NCCN)CC[C@]4(C)[C@H]3CC[C@]12C [Compound 409]
pharmacological response in tadpole (words) [1]: functionally similar to compound 1437

CC(C)CCC[C@@H](C)[C@H]1CC[C@H]2[C@@H]3[C@H](O)C[C@H]4C[C@H](N)CC[C@]4(C)[C@H]3CC[C@]12C [Compound 1363]
pharmacological response in tadpole (words) [1]: pharmacologic activity similar to Fraction 1

CC(CC[C@@H](OS(=O)(=O)O)C(C)C)[C@H]1CCC2C3C(CC[C@@]21C)[C@@]1(C)CC[C@H](NCCCNCCCCNCCCN)C[C@@H]1C[C@H]3O (some centres unmarked)
minimal effective concentration (Lic): 16.7 µg/mL
